pIC50: −log10 of the molar value.
Tests used:
[1] = tested on: model of neuropathic pain; design: method as in PMID 33529752; settings: cited from earlier work
SNI mice [2] = test: Mechanical allodynia (Dynamic Plantar Aesthesiometer) in SNI mice; format: in vivo
Protocol: Mice were randomly assigned to each treatment group. […] Maria Novella Romanelli, iBET762 (molibresib; (4S)-6-(4-Chlorophenyl)-N-ethyl-8-methoxy-1-methyl-4H-[1,2,4]triazolo[4,3,a][1,4] benzodiazepine-4-acetamide, and SAHA (vorinostat; suberoylanilide hydroxamic acid) (Sigma-Aldrich, Italy) were administered 15 min before the tests. Drugs were dissolved in 5% DMSO. Drug concentrations were prepared in such a way that the necessary dose could be administered in a volume of 10 µl per mouse by intranasal (i.n.) administration. The experimental protocol to test the effect of treatments on behavioral and in vitro tests included 3 control groups: untreated, vehicle (5% DMSO), and saline.
(§4) For i.n. administration, mice were slightly anesthetized by 2% isoflurane inhalation and placed in a supine position [30]. A 5 μl aliquot of solution (treatments or vehicle) was slowly dropped alternatively to each nostril with a micropipette tip.
Behavioral testing was performed before surgery to establish a baseline for comparison with post-surgical values. Mono-neuropathy was induced by spared nerve injury and this model of pain in mice has been in use for several years [31]. The SNI procedure was performed as previously described [31].
Mechanical allodynia was measured by using Dynamic Plantar Aesthesiometer (Ugo Basile, Bologna, Italy), as described [32]. Nociceptive response for mechanical sensitivity was expressed as mechanical paw withdrawal threshold (PWT) in grams. PWT was quantified by an observer blinded to the treatment.

naïve mice = test: Hot plate test, acute thermal pain in naïve mice; format: in vivo; settings: 5 to 500 µM i.n.
From the text: Mice were randomly assigned to each treatment group. To evaluate the pharmacological profile of SUM35 (N-hydroxy-6-(1-methyl-6-phenyl-4H-benzo[f][1,2,4]triazolo[4,3-a][1,4]diazepin-8-yl)hex-5-ynamide), SUM52 ((S)-N-hydroxy-7-(2-(1-methyl-6-phenyl-4H-benzo[f][1,2,4]triazolo[4,3-a][1,4]diazepin-4-yl)acetamido)heptanamide) (Fig. 1F), synthesized in the laboratory of Prof. Maria Novella Romanelli, iBET762 (molibresib; (4S)-6-(4-Chlorophenyl)-N-ethyl-8-methoxy-1-methyl-4H-[1,2,4]triazolo[4,3,a][1,4] benzodiazepine-4-acetamide, and SAHA (vorinostat; suberoylanilide hydroxamic acid) (Sigma-Aldrich, Italy) were administered 15 min before the tests. Drugs were dissolved in 5% DMSO. Drug concentrations were prepared in such a way that the necessary dose could be administered in a volume of 10 µl per mouse by intranasal (i.n.) administration. The experimental protocol to test the effect of treatments on behavioral and in vitro tests included 3 control groups: untreated, vehicle (5% DMSO), and saline. A representative figure of the experimental protocol in naïve (C) and SNI (F) mice has been inserted in Supplementary Fig. 1.
For i.n. administration, mice were slightly anesthetized by 2% isoflurane inhalation and placed in a supine position. A 5 μl aliquot of solution (treatments or vehicle) was slowly dropped alternatively to each nostril with a micropipette tip.
Animals were habituated to the testing environment daily for at least 2 days before baseline testing. To evaluate onset and progression of pain hypersensitivity, neuropathic mice were monitored by measuring nociceptive responses every 30 min for 3 h before surgery or 3, 7, 10, and 14 days after nerve surgery. Experiments were performed on post-surgery day 7 and 14 when the pain hypersensitivity was well established. Each mouse served as its own control, the responses being measured both before and after surgery. All testing was performed with a blind procedure.

HDAC1 = molecular target: T1, HDAC1 (Homo sapiens, UniProt Q13547); test: HDAC1 immunoprecipitation & activity assay on treated HCT-116 cells; format: cell-based; settings: HCT-116 cells treated at 10 µM for 12 h; in comparison with SAHA
T1 construct: endogenous in cells; host or cells: HCT-116
Protocol: HDAC assay: To test the inhibition activity of compounds, the HDAC1 immunoprecipitation (IP) & Activity Assay Kit (Catalog # K342-25; Biovision) was used under the protocol provided by the kit. HCT-116 cell lines were plated in 6 wells and treated with the investigated compounds at 10 µM for 12 h. After incubation, the media was removed, and the cells were washed with PBS (EuroClone) solution (2X). Then, 200 µl/well of lysis buffer with protease inhibitor was added and the cells were scraped and incubated in ice for 30 min. After centrifugation at 10,000 g for 10 min at 4 °C, the supernatant was collected. One hundred micrograms of each extract was incubated with 6 µl of Rabbit HDAC1 antibody and Rabbit IgG and the volume was reached to 500 µl with PBS with protease inhibitors. After incubation at 4 °C overnight a rotary mixer, 25 µl of the protein-A/G bead slurry, previously washed with PBS (2X), was added to the samples and incubated for 1 h at 4 °C. The beads were recovered after 3 washes with 1 ml PBS, by centrifuging at 14,000 g for ~ 10 s and used for HDAC assay.
HDAC assay preparation: For each reaction, 168 µl reaction mix containing HDAC assay buffer and HDAC substrate was prepared, added to the sample and to background control tube, and incubated at 37 °C for 2 h. SAHA was used as a positive control. […] The fluorescence was read at Ex/Em = 380/500 nm with Tecan M1000 plate reader.

SNI mice [3] = test: Hargreaves' plantar test, thermal allodynia in SNI mice; format: in vivo
Protocol: as §4
Behavioral testing was performed before surgery to establish a baseline for comparison with post-surgical values.
Thermal nociceptive threshold was measured using Hargreaves’ device, as described [33]. Nociceptive response for thermal sensitivity was expressed as thermal paw withdrawal latency in seconds. All determinations were averaged for each animal.

[4] = molecular target: T2, Recombinant Human Bromodomain containing protein 4, bromodomain 2 (BRD4-BD2) (Homo sapiens, UniProt O60885); test: AlphaScreen bromodomain binding assay (Reaction Biology), BRD4-2
T2 construct: purchased Reaction Biology (RBC) RD-11–141; host or cells: E. coli
Protocol: (§1) The reader assay is a binding assay using AlphaScreen technology […] assay and was performed by Reaction Biology (www.reactionbiology.com). The biotinylated peptide binding to the reader domain of His-tagged protein is monitored by the singlet oxygen transfer from the Streptavidin-coated donor beads to the AlphaScreen Ni-chelate acceptor beads.
(§2) Reaction buffer: 50 mM Hepes, pH7.5, 100 mM NaCl, 0.05% CHAPS, 0.1% BSA, and 1% DMSO (the final DMSO concentration may differ depending on compound stock and test concentrations).
(§3) Bromodomain: BRD4-1: RBC Cat# RD-11–140: Recombinant Human Bromodomain containing protein 4, bromodomain 1 (aa 44–170; Genbank Accession # NM_058243), expressed in E. coli with N-terminal His-tag. MW = 17.8 kDa; BRD4-2: RBC Cat# RD-11–141: Recombinant Human Bromodomain containing protein 4, bromodomain 2 (aa 349–460;Genbank Accession # NM_058243), expressed in E. coli with N-terminal His-tag. MW = 15.7 kDa. Ligand (C-term-Biotin): Histone H4 peptide (1–21) K5/8/12/16Ac-Biotin. Detection beads: PerkinElmer: Donor beads: Streptavidin-coated donor beads; Acceptor beads: AlphaScreen Ni acceptor beads.
Reaction procedure: • Deliver 2.5X BRD in wells of reaction plate except No BRD control wells. Add buffer instead. • Deliver compounds in 100% DMSO into the BRD mixture by Acoustic technology (Echo550; nanoliter range). Spin down and pre-incubation for 30 min. • Deliver 5X Ligand. Spin and shake. • Incubate for 30 min at room temperature with gentle shaking. • Deliver 5X donor beads. Spin and shake. • Deliver 5X acceptor beads. Spin and shake. Then gentle shaking in the dark for 60 min. • Alpha measurement (Ex/Em = 680/520–620 nm) in Enspire.

[5] = molecular target: T3, Recombinant Human Bromodomain containing protein 4, bromodomain 1 (BRD4-BD1) (Homo sapiens, UniProt O60885); test: AlphaScreen bromodomain binding assay (Reaction Biology), BRD4-1; settings: ligand Histone H4 peptide (1–21) K5/8/12/16Ac-Biotin; in comparison with (+)-JQ1; read-out: IC50 on BRD4-BD1
T3 construct: bromodomain 1 (aa 44–170); purchased Reaction Biology (RBC) RD-11–140; host or cells: E. coli
Protocol: as §1, §2, §3
Reaction procedure: • Deliver 2.5X BRD in wells of reaction plate except No BRD control wells. Add buffer instead. • Deliver compounds in 100% DMSO into the BRD mixture by Acoustic technology (Echo550; nanoliter range). […]

[6] = time-course comparison, combination i-BET762 10 µg, SAHA 3 µg

T1 sequence (Q13547 whole entry): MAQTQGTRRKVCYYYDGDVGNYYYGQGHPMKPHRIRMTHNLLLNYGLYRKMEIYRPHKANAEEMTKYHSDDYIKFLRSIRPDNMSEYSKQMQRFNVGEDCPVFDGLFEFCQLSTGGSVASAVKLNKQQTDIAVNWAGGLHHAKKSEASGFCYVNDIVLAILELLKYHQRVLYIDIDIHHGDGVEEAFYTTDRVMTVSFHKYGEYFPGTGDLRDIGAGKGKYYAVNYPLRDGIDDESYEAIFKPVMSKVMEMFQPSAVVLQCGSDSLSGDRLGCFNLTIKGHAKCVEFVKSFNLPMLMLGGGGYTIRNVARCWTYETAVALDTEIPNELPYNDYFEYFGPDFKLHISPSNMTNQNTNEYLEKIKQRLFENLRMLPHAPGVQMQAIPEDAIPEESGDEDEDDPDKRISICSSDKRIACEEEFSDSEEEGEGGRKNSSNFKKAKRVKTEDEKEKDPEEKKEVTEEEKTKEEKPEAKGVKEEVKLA

Row | Structure (SMILES) | time of peak of analgesic activity after administration [1] | mechanical antiallodynic activity, ipsilateral side (SNI mice [2]; 100 µM i.n.) | mechanical antiallodynic activity, ipsilateral side (SNI mice [2]; 200 µM i.n.) | mechanical antiallodynic efficacy compared with SAHA + iBET762 combination (SNI mice [2]; [6]) | thermal antinociceptive effect (hot plate), whole dose range (naïve mice) | inhibition of HDAC1 enzymatic activity (HDAC1) | thermal antiallodynic activity, ipsilateral side (SNI mice [3]; 100 µM i.n.) | thermal antiallodynic activity, ipsilateral side (SNI mice [3]; 200 µM i.n.) | thermal antiallodynic efficacy compared with SAHA + iBET762 combination (SNI mice [3]; [6]) | preference between BRD4-BD1 and BRD4-BD2 domains ([4]; BRD4-BD1 vs BRD4-BD2) | pIC50 ([4]; ligand Histone H4 peptide (1–21) K5/8/12/16Ac-Biotin, in comparison with (+)-JQ1, read-out: IC50 on BRD4-BD2) | pIC50 [5]
1 | O=C(CCCCCCC(=O)Nc1ccccc1)NO [SAHA, suberoylanilide hydroxamic acid] | 60 min |  |  |  |  |  |  |  |  |  |  | 
2 | Cc1nnc2n1-c1ccc(C#CCCCC(=O)NO)cc1C(c1ccccc1)=NC2 [SUM35, N-hydroxy-6-(1-methyl-6-phenyl-4H-benzo[f][1,2,4]triazolo[4,3-a][1,4]diazepin-8-yl)hex-5-ynamide] |  | reaching the statistical significance | did not produce any significant increase of pain threshold | lower antiallodynic activity | did not produce any significant increase of the thermal pain threshold | Partial inhibition | reaching the statistical significance | did not produce any significant increase of pain threshold | lower antiallodynic activity | preferential interaction for BRD4-BD2 | 6.93 | 5.76
3 | CCNC(=O)C[C@@H]1N=C(c2ccc(Cl)cc2)c2cc(OC)ccc2-n2c(C)nnc21 [iBET762, (4S)-6-(4-Chlorophenyl)-N-ethyl-8-methoxy-1-methyl-4H-[1,2,4]triazolo[4,3,a][1,4] benzodiazepine-4-acetamide] | 90 min |  |  |  |  |  |  |  |  |  |  | 

— PMC9606187, “Dual HDAC/BRD4 Inhibitors Relieves Neuropathic Pain by Attenuating Inflammatory Response in Microglia After Spared Nerve Injury” (Neurotherapeutics, 2022)
